Like-named read-outs stand apart in the source and are kept apart here.

The target in one experiment is RIPK1 (Homo sapiens (Human), UniProt Q13546). Put plainly: ADP-Glo kinase assay (RIPK1 activity, conversion of ATP to ADP). The note with it: 5 nM RIPK1, 50 μM ATP, 6 h reaction; read-out: RIPK1 Enzyme Avg IC50. The experiment is classed as biochemical. The procedure, abridged:
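ADP-Glo luminescence of ATP-to-ADP conversion by 5 nM RIPK1 with 50 μM ATP (final), 6 h reaction after 10 min compound preincubation at rt. Buffer was 50 mM HEPES pH 7.5, 30 mM MgCl2, 0.05% BSA, 0.02% CHAPS. IC50 from four-parameter logistic fit.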
(In ADP-Glo the light output rises with the ADP produced.)

The test system of experiment [1] is human monocytic cell line U937. Put plainly: Human U937 cellular necroptosis assay (TNFalpha + z-VAD-FMK, Cell Titer-Glo viability). The experiment is classed as cell-based. The note with it: U937 cells, 25 ng/mL human TNFalpha + 25 μM z-VAD-FMK, read-out: hU937 Avg IC50. In short, it runs like this:
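Cells resuspended in phenol red-free RPMI with 10% FBS, stimulated with 25 ng/mL human TNFalpha plus 25 μM z-VAD-FMK, then given serially diluted compound for 22 h at 37° C, 5% CO2. Viability by Cell Titer-Glo 2.0 luminescence; IC50 from four-parameter logistic fit, averaged across runs.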

Sequence of RIPK1 (Q13546 1-327): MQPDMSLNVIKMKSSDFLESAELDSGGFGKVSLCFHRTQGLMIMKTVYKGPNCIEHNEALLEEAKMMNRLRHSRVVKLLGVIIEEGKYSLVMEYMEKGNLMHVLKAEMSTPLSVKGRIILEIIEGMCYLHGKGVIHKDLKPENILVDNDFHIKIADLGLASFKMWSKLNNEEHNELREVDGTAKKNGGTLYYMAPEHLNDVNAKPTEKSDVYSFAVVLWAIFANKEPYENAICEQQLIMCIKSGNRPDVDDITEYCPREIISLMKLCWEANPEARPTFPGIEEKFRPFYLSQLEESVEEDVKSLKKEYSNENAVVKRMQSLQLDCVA

Usually IC50 stands for the midpoint of a concentration-inhibition curve. Regarding `N#CCC12CC(C(=O)N3N=CCC3c3cc(F)cc(F)c3)(C1)C2` (centres unmarked) [Example 18, 2-(3-(5-(3,5-Difluorophenyl)-4,5-dihydro-1H-pyrazole-1-carbonyl)-bicyclo[1.1.1]pentan-1-yl)acetonitrile], the 50% inhibitory concentration (IC50) on RIPK1 was determined as 70 nM; in experiment [1] (Homo sapiens, U-937, 22 h), 284 nM.
Taken in the same sequence, the figures for `Cc1c2ccccc2nn1CC12CC(C(=O)N3N=CCC3c3cc(F)cc(F)c3)(C1)C2` (centres unmarked) [Example 152, (5-(3,5-difluorophenyl)-4,5-dihydro-1H-pyrazol-1-yl)(3-((3-methyl-2H-indazol-2-yl)-methyl)bicyclo[1.1.1]pentan-1-yl)methanone] were 98 nM and 363 nM.
In the case of `Cc1ncnc(OCC23CC(C(=O)N4CC(F)CC4c4cccc(F)c4)(C2)C3)c1F` (centres unmarked) [Example 93, (4-fluoro-2-(3-fluorophenyl)-pyrrolidin-1-yl)(3-(((5-fluoro-6-methylpyrimidin-4-yl)oxy)methyl)bicyclo[1.1.1]-pentan-1-yl)methanone], the IC50 on RIPK1 was determined as 79 nM; in experiment [1] (Homo sapiens, U-937, 22 h) it was 398 nM.
The matching figures for `O=C(N1N=CCC1c1cc(F)cc(F)c1)C12CC(COc3cccc(F)c3Cl)(C1)C2` (centres unmarked) [Example 332, (3-((2-chloro-3-fluoro-phenoxy)methyl)bicyclo-[1.1.1]pentan-1-yl)(5-(3,5-difluorophenyl)-4,5-dihydro-1H-pyrazol-1-yl)methanone]: 19 nM and 33 nM.
`O=C(N1N=CCC1c1cncc(F)c1)C12CC(Cn3ncc4c(F)cccc43)(C1)C2` (centres unmarked) [Example 14, (3-((4-Fluoro-1H-indazol-1-yl)methyl)bicyclo[1.1.1]pentan-1-yl)(5-(5-fluoropyridin-3-yl)-4,5-dihydro-1H-pyrazol-1-yl)methanone]: the IC50 worked out at 12 nM on RIPK1 and 24 nM in experiment [1] (Homo sapiens, U-937, 22 h).
The matching figures for `O=C(N1CC(F)CC1c1cccc(F)c1)C12CC(Cn3ncc4cc(F)ccc43)(C1)C2` (centres unmarked) [Example 27, (3-((5-Fluoro-1H-indazol-1-yl)methyl)bicyclo[1.1.1]pentan-1-yl)(4-fluoro-2-(3-fluorophenyl)pyrrolidin-1-yl)methanone]: 14 nM and 167 nM.
In the case of `O=C(N1CC(F)CC1c1cccc(F)c1)C12CC(Cn3ncc4ncccc43)(C1)C2` (centres unmarked) [Example 48, (3-((1H-pyrazolo[4,3-b]pyridin-1-yl)methyl)bicyclo[1.1.1]pentan-1-yl)-(4-fluoro-2-(3-fluorophenyl)pyrrolidin-1-yl)methanone], the half-maximal inhibitory concentration (IC50) on RIPK1 was found to be 186 nM; in experiment [1] (Homo sapiens, U-937, 22 h), 1300 nM.
The matching figures for `O=C(N1N=CCC1c1cc(F)cc(F)c1)C12CC(COc3cc(F)cnc3F)(C1)C2` (centres unmarked) [Example 328, (5-(3,5-difluorophenyl)-4,5-dihydro-1H-pyrazol-1-yl)(3-(((2,5-difluoropyridin-3-yl)-oxy)methyl)bicyclo[1.1.1]-pentan-1-yl)methanone]: 116 nM and 409 nM.
The matching figures for `N#Cc1cccc(C2CC=NN2C(=O)C23CC(Cn4ncc5ncccc54)(C2)C3)c1` (centres unmarked) [Example 139, 3-(1-(3-((1H-pyrazolo[4,3-b]-pyridin-1-yl)methyl)bicyclo-[1.1.1]pentane-1-carbonyl)-4,5-dihydro-1H-pyrazol-5-yl)benzonitrile]: 95 nM and 493 nM.
The matching figures for `O=C(N1CC(F)CC1c1cccc(F)c1)C12CC(COc3ccccc3)(C1)C2` (centres unmarked) [Example 31, (4-Fluoro-2-(3-fluorophenyl)pyrrolidin-1-yl)(3-(phenoxymethyl)-bicyclo[1.1.1]pentan-1-yl)methanone]: 55 nM and 462 nM.
`N#Cc1cc2cnn(CC34CC(C(=O)N5N=CCC5c5cc(F)cc(F)c5)(C3)C4)c2cn1` (centres unmarked) [Example 213, 1-((3-(5-(3,5-difluorophenyl)-4,5-dihydro-1H-pyrazole-1-carbonyl)bicyclo[1.1.1]pentan-1-yl)methyl)-1H-pyrazolo[3,4-c]pyridine-5-carbonitrile]: the IC50 on RIPK1 is 33 nM; in experiment [1] (Homo sapiens, U-937, 22 h) it was 63 nM.
Taken in the same sequence, the figures for `Cc1nn(CC23CC(C(=O)N4N=CCC4c4cc(F)cc(F)c4)(C2)C3)c2ccccc12` (centres unmarked) [Example 153, (5-(3,5-difluorophenyl)-4,5-dihydro-1H-pyrazol-1-yl)(3-((3-methyl-1H-indazol-1-yl)-methyl)bicyclo[1.1.1]pentan-1-yl)methanone] were 204 nM and 553 nM.
The matching figures for `N#Cc1cc2cn(CC34CC(C(=O)N5N=CCC5c5cc(F)cc(F)c5)(C3)C4)nc2cn1` (centres unmarked) [Example 219, 2-((3-(5-(3,5-difluorophenyl)-4,5-dihydro-1H-pyrazole-1-carbonyl)bicyclo[1.1.1]pentan-1-yl)methyl)-2H-pyrazolo[3,4-c]pyridine-5-carbonitrile]: 47 nM and 292 nM.
The matching figures for `N#Cc1cn(CC23CC(C(=O)N4N=CCC4c4cc(F)cc(F)c4)(C2)C3)nn1` (centres unmarked) [Example 163, 1-((3-(5-(3,5-difluorophenyl)-4,5-dihydro-1H-pyrazole-1-carbonyl)bicyclo[1.1.1]-pentan-1-yl)methyl)-1H-1,2,3-triazole-4-carbonitrile]: 114 nM and 730 nM.
`CC(Oc1cc(Cl)ncn1)C12CC(C(=O)N3CC(F)CC3c3cccc(F)c3)(C1)C2` (centres unmarked) [Example 43, (3-(1-((6-Chloropyrimidin-4-yl)oxy)ethyl)bicyclo[1.1.1]pentan-1-yl)(4-fluoro-2-(3-fluorophenyl)pyrrolidin-1-yl)methanone]: the IC50 on RIPK1 was found to be 1700 nM; in experiment [1] (Homo sapiens, U-937, 22 h) it was 4210 nM.
Taken in the same sequence, the figures for `O=C(N1N=CCC1c1cc(F)cc(F)c1)C12CC(CO)(C1)C2` (centres unmarked) [Example 208, (5-(3,5-Difluorophenyl)-4,5-dihydro-1H-pyrazol-1-yl)(3-(hydroxymethyl)bicyclo[1.1.1]pentan-1-yl)methanone] were 2270 nM and 4300 nM.
Taken in the same sequence, the figures for `N#Cc1ccc2c(cnn2CC23CC(C(=O)N4CCC4c4cccs4)(C2)C3)c1` (centres unmarked) [Example 255, 1-((3-(2-(thiophen-2-yl)-azetidine-1-carbonyl)bicyclo-[1.1.1]pentan-1-yl)methyl)-1H-indazole-5-carbonitrile] were 49 nM and 550 nM.
The matching figures for `O=C(N1N=CCC1c1cc(F)cc(F)c1)C12CC(COc3ccc(F)cc3F)(C1)C2` (centres unmarked) [Example 335, (3-((2,4-difluorophenoxy)-methyl)bicyclo[1.1.1]pentan-1-yl)(5-(3,5-difluorophenyl)-4,5-dihydro-1H-pyrazol-1-yl)methanone]: 18 nM and 46 nM.
With “1-((3-(5-(3,5-difluorophenyl)-4,5-dihydro-1H-pyrazole-1-carbonyl)bicyclo[1.1.1]-pentan-1-yl)methyl)-1H-benzo[d]imidazole-6-carbonitrile and 1-((3-(5-(3,5-difluorophenyl)-4,5-dihydro-1H-pyrazole-1-carbonyl)bicyclo[1.1.1]-pentan-1-yl)methyl)-1H-benzo[d]imidazole-5-carbonitrile [Example 186]”, the concentration for half-maximal inhibition (IC50) on RIPK1 stood at 113 nM; in experiment [1] (22 h), 682 nM.
On to `O=C(N1N=CCC1c1cc(F)cc(F)c1)C12CC(COc3ccc(Br)cc3Cl)(C1)C2` (centres unmarked) [Example 330, (3-((4-bromo-2-chloro-phenoxy)methyl)bicyclo-[1.1.1]pentan-1-yl)(5-(3,5-difluorophenyl)-4,5-dihydro-1H-pyrazol-1-yl)methanone], for which the IC50 turned out to be 11 nM at RIPK1 and 21 nM in experiment [1] (Homo sapiens, U-937, 22 h).
For the compound `O=C(N1N=CCC1c1cc(F)cc(F)c1)C12CC(Cn3ccc4cncnc43)(C1)C2` (centres unmarked) [Example 136, (3-((7H-pyrrolo[2,3-d]-pyrimidin-7-yl)methyl)-bicyclo[1.1.1]pentan-1-yl)(5-(3,5-difluorophenyl)-4,5-dihydro-1H-pyrazol-1-yl)-methanone], the IC50 at RIPK1 was 20 nM; in experiment [1] (Homo sapiens, U-937, 22 h) it was 58 nM.
The matching figures for `N#Cc1ccc2c(cnn2CC23CC(C(=O)N4CCC4c4ccc(Cl)cc4)(C2)C3)c1` (centres unmarked) [Example 233, 1-((3-(2-(4-chlorophenyl)-azetidine-1-carbonyl)bicyclo-[1.1.1]pentan-1-yl)methyl)-1H-indazole-5-carbonitrile]: 223 nM and 1190 nM.
Turning to `O=C(N1N=CCC1c1cc(F)cc(F)c1)C12CC(COc3cc(Cl)ncn3)(C1)C2` (centres unmarked) [Example 7, (3-(((6-Chloropyrimidin-4-yl)oxy)methyl)bicyclo[1.1.1]pentan-1-yl)(5-(3,5-difluorophenyl)-4,5-dihydro-1H-pyrazol-1-yl)methanone], the half-inhibitory concentration (IC50) at RIPK1 is 21 nM; in experiment [1] (Homo sapiens, U-937, 22 h), 18 nM.
The matching figures for `O=C(N1N=CCC1c1cc(F)cc(F)c1)C12CC(Cn3cc(F)c4ncc(F)cc43)(C1)C2` (centres unmarked) [Example 161, (3-((3,6-difluoro-1H-pyrrolo-[3,2-b]pyridin-1-yl)methyl)-bicyclo[1.1.1]pentan-1-yl)(5-(3,5-difluorophenyl)-4,5-dihydro-1H-pyrazol-1-yl)methanone]: 50 nM and 157 nM.
Taken in the same sequence, the figures for `N#Cc1cnn(CC23CC(C(=O)N4N=CCC4c4cncc(F)c4)(C2)C3)c1` (centres unmarked) [Example 166, 1-((3-(5-(5-fluoropyridin-3-yl)-4,5-dihydro-1H-pyrazole-1-carbonyl)bicyclo[1.1.1]-pentan-1-yl)methyl)-1H-pyrazole-4-carbonitrile] were 308 nM and 1970 nM.

The values are drawn from patent US20250214942A1, “INHIBITORS OF RECEPTOR INTERACTING PROTEIN KINASE I FOR THE TREATMENT OF DISEASE” (Board of Regents, The University of Texas System, priority 2019, published 2025).
